The values below come from PubChem BioAssay (NCI).

Among the test systems are COLO 205 colon; EKVX NSCLC; MALME-3M melanoma; NCI-H460 lung; OVCAR-8 ovarian; RPMI-8226 leukemia; SN12C renal; TK-10 renal; UO-31 renal; CAKI-1 renal.
What all share (assay): inhibition of tumour cell growth, NCI panel, 48 h

Each structure is given as a SMILES string. Several values for one entry are separate records, joined by “and”; a condition that tells them apart may be missing. Equal entries are not always repeated.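 The compound was tested at five concentrations on cells cultured in 96-well plates, with a 48-hour exposure period. Here, GI50 denotes the concentration required for 50% inhibition of growth. TGI is the concentration that stops growth completely.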 Some results are limits rather than exact numbers.

In the case of `CCC[CH2][Sn-]([CH2]CCC)([CH2]CCC)[O]c1cc(Cl)c(Cl)cc1Cl`, the GI50 was 0.191 µM in the assay with COLO 205 colon; 0.216 µM in the assay on EKVX NSCLC; 0.174 µM in the assay with MALME-3M melanoma; 0.165 µM with NCI-H460 lung; 0.221 µM in the assay on OVCAR-8 ovarian; 0.137 µM in the assay on RPMI-8226 leukemia. The GI50 in the assay with SN12C renal is 0.164 µM; with TK-10 renal it was 0.287 µM. For the same molecule, the TGI in the assay on COLO 205 colon is 0.4 µM; in the assay on EKVX NSCLC, 0.9 µM; in the assay with MALME-3M melanoma it was 0.379 µM; in the assay with NCI-H460 lung, 0.344 µM; in the assay with OVCAR-8 ovarian, 0.557 µM; with RPMI-8226 leukemia, 0.853 µM. The figures for the TGI in the assay on SN12C renal and with TK-10 renal were 0.338 µM and 0.957 µM, respectively.

Take `CC1=C(C)C(=O)c2c(cc3ccc4ccccc4n23)C1=O`: the TGI in the assay on COLO 205 colon, with EKVX NSCLC, in the assay with MALME-3M melanoma, in the assay with NCI-H460 lung, in the assay on OVCAR-8 ovarian and in the assay on RPMI-8226 leukemia was above 100 µM in each case. Moreover, the TGI in the assay on SN12C renal, with TK-10 renal and with UO-31 renal was above 100 µM throughout.

Regarding `O=c1c2ccccc2[nH]c(=S)n1-c1ccc(Br)cc1`, the TGI in the assay with COLO 205 colon, in the assay on EKVX NSCLC, in the assay on MALME-3M melanoma, with NCI-H460 lung, in the assay with OVCAR-8 ovarian and with RPMI-8226 leukemia was above 100 µM in each case. The TGI in the assay on SN12C renal, with TK-10 renal and with UO-31 renal was above 100 µM throughout.

As for `CN1CC[C@@H](c2c(O)cc(O)c3c(=O)cc(-c4ccccc4Cl)oc23)[C@@H](O)C1`, the TGI is above 39.6 µM in the assay on CAKI-1 renal; 0.223 µM and 0.116 µM with COLO 205 colon; 0.435 µM and 0.947 µM in the assay with EKVX NSCLC; 0.439 µM and 0.465 µM in the assay on MALME-3M melanoma; 0.233 µM and 1.36 µM with RPMI-8226 leukemia; 13.2 µM in the assay with SN12C renal. Further, the TGI in the assay with TK-10 renal is 34.8 µM; in the assay on UO-31 renal, 0.876 µM and 0.164 µM and 1.18 µM. For the same molecule, the GI50 was 0.0917 µM in the assay on COLO 205 colon; 0.141 µM in the assay on EKVX NSCLC; 0.166 µM and 0.144 µM with MALME-3M melanoma; 0.0681 µM and 0.0693 µM with NCI-H460 lung; 0.0753 µM and 0.0274 µM with RPMI-8226 leukemia; 0.213 µM with SN12C renal. Moreover, the GI50 in the assay with TK-10 renal was 0.119 µM and 0.0937 µM; with UO-31 renal, 0.0713 µM and 0.0363 µM and 0.0238 µM.

As to `N#Cc1c(Sc2ccccc2N)cccc1Sc1ccccc1N`, the GI50 with CAKI-1 renal is 60.8 µM; in the assay on COLO 205 colon, 34.9 µM; in the assay on EKVX NSCLC it was 35.6 µM; with MALME-3M melanoma, 25.3 µM; with NCI-H460 lung, 40.3 µM; with OVCAR-8 ovarian it was 53.8 µM. Further, the GI50 in the assay on RPMI-8226 leukemia was 28.8 µM; in the assay with SN12C renal it was 42.1 µM; in the assay on UO-31 renal it was 7.56 µM.

Turning to `O=C(O)CSc1n[nH]c(-c2ccc(O)cc2)n1`, the TGI in the assay on CAKI-1 renal, with COLO 205 colon, with EKVX NSCLC, with MALME-3M melanoma, with NCI-H460 lung and in the assay with OVCAR-8 ovarian was above 100 µM in each case. Moreover, the TGI in the assay with RPMI-8226 leukemia, with TK-10 renal and with UO-31 renal was above 100 µM each time.

Turning to `O=C(O)c1c(-c2cccc3ccccc23)sc(-c2cccc3ccccc23)c1C(=O)O`, the TGI in the assay on COLO 205 colon, in the assay with EKVX NSCLC, in the assay on MALME-3M melanoma, in the assay with NCI-H460 lung, with OVCAR-8 ovarian and in the assay on RPMI-8226 leukemia was above 100 µM in each case. Moreover, the TGI in the assay with SN12C renal, with TK-10 renal and in the assay with UO-31 renal was above 100 µM in each case.

Consider `O=[N+]([O-])c1ccc(C(c2c[nH]c3ccccc23)c2c[nH]c3ccccc23)cc1`, for which the TGI worked out at 21.8 µM in the assay with COLO 205 colon; 48.2 µM in the assay on EKVX NSCLC; 37.6 µM in the assay with MALME-3M melanoma; 12.6 µM in the assay with NCI-H460 lung; 33.2 µM in the assay on OVCAR-8 ovarian; 13.4 µM in the assay on RPMI-8226 leukemia. In addition, the TGI in the assay on SN12C renal worked out at 35.2 µM; with TK-10 renal, 28.5 µM; in the assay on UO-31 renal, 22.9 µM.

For the molecule `COc1ccc2[nH]c3c(c2c1)CCN(C)CC3`, the TGI with CAKI-1 renal, in the assay on COLO 205 colon, in the assay with EKVX NSCLC, with MALME-3M melanoma, with NCI-H460 lung and in the assay on OVCAR-8 ovarian was above 100 µM throughout. Also, the TGI in the assay on RPMI-8226 leukemia and with TK-10 renal was above 100 µM in each case.

With `COc1ccc(N=C2CSc3nnc(-c4cc(F)c(Cl)cc4Cl)n3N2)cc1`, the GI50 in the assay with CAKI-1 renal was 1.52 µM; in the assay with COLO 205 colon it was 1.81 µM; in the assay on EKVX NSCLC it was 4.84 µM; with MALME-3M melanoma it was 0.529 µM; in the assay on NCI-H460 lung, 1.07 µM; with OVCAR-8 ovarian, 2.33 µM. In addition, the GI50 with RPMI-8226 leukemia was 1.41 µM; in the assay on SN12C renal it was 2.61 µM; with TK-10 renal, 1.4 µM. For the same molecule, the TGI with CAKI-1 renal was found to be 4.49 µM; with COLO 205 colon, 16 µM; in the assay with EKVX NSCLC it was 41.7 µM; in the assay on MALME-3M melanoma, 3.77 µM; in the assay on NCI-H460 lung, 12.3 µM; in the assay with OVCAR-8 ovarian it was 10.7 µM. In addition, the TGI worked out at 11 µM in the assay on RPMI-8226 leukemia, 14.4 µM in the assay with SN12C renal and 4.06 µM in the assay on TK-10 renal.

On to `COc1cc(C2CC(c3ccc(C)cc3)=NN2C=O)ccc1Oc1ccnc2cc(Cl)ccc12` (configuration not stated), for which the GI50 was above 50 µM in the assay with CAKI-1 renal; above 50 µM in the assay with COLO 205 colon; 7.75 µM with EKVX NSCLC; above 50 µM in the assay on MALME-3M melanoma; above 50 µM with NCI-H460 lung; above 50 µM in the assay on RPMI-8226 leukemia. The GI50 in the assay on SN12C renal and in the assay on UO-31 renal was above 50 µM each time. Also, the TGI in the assay with CAKI-1 renal, with COLO 205 colon, in the assay on EKVX NSCLC, in the assay with MALME-3M melanoma, in the assay on NCI-H460 lung and in the assay with RPMI-8226 leukemia was above 50 µM each time. In addition, the TGI with SN12C renal and in the assay on UO-31 renal was above 50 µM in each case.

With `CC(=O)C1CC(C)=CCC12C(=O)Nc1ccccc12` (configuration not stated), the TGI in the assay on CAKI-1 renal, in the assay with COLO 205 colon, with EKVX NSCLC, with MALME-3M melanoma, in the assay on NCI-H460 lung and in the assay with OVCAR-8 ovarian was above 100 µM in each case. Moreover, the TGI in the assay with RPMI-8226 leukemia, with SN12C renal and with TK-10 renal was above 100 µM each time.
